Source: paper PMC10009787 (ACS Medicinal Chemistry Letters, 2023)
Where two headings read alike, the source gives them in different places.

Tests used:
TEC = TEC (Homo sapiens, UniProt P42680); assay: SelectScreen kinase profiling; type: biochemical; conditions: average of duplicate
[1] = biological target: MAP2K1 (MEK1) S218D S222D (Homo sapiens, UniProt Q02750, S218D/S222D); assay: SelectScreen kinase profiling; type: biochemical; conditions: average of duplicate
ERBB2 (HER2) = ERBB2 (HER2) (Homo sapiens, UniProt P04626); assay: SelectScreen kinase profiling; type: biochemical; conditions: average of duplicate
HCK = HCK (Homo sapiens, UniProt P08631); assay: AssayQuant kinact/Ki profiling, PhosphoSens CSox-based kinetic assay; conditions: for kinact: read-out: HCK kinact; for kinact/KI: read-out: HCK kinact/KI
Chain of HCK (P08631 whole entry): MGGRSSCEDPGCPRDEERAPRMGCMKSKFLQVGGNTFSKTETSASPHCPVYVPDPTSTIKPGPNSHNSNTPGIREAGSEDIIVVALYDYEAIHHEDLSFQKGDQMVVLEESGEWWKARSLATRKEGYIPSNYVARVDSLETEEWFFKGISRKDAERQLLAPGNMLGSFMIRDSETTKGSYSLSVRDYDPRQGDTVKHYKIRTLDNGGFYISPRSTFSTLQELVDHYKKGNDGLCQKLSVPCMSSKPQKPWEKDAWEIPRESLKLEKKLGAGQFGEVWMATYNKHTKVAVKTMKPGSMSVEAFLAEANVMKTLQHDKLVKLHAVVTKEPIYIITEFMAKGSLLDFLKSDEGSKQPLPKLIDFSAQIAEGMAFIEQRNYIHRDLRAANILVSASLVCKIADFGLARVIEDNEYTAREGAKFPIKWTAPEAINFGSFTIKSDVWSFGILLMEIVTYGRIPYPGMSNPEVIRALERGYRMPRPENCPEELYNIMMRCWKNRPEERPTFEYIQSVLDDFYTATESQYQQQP

BTK = BTK (Homo sapiens, UniProt Q06187); assay: Western blot, phosphorylation of BTK in Jeko-1 cells; type: cell-based; conditions: 2 h
Chain of BTK (Q06187 whole entry): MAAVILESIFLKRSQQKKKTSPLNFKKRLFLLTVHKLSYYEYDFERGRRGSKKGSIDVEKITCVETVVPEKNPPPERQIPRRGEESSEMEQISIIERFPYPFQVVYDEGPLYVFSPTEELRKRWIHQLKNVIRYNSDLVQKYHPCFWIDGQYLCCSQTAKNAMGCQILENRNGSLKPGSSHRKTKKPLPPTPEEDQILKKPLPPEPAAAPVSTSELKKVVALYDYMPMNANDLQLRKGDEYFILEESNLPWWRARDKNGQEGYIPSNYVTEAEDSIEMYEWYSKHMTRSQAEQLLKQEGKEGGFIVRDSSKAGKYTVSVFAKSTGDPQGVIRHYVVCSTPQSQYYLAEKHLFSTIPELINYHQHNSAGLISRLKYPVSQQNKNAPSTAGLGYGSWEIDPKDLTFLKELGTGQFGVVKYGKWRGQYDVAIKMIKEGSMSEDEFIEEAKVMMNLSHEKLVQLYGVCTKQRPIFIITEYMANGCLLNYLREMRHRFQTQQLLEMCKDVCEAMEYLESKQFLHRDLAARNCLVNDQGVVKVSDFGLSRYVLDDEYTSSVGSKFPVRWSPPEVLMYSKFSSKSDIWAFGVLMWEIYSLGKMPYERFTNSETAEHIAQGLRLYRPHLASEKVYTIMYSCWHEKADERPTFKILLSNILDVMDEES

KIT V559D = KIT V559D (Homo sapiens, UniProt P10721, V559D); assay: SelectScreen kinase profiling; type: biochemical; conditions: average of duplicate
Chain of KIT V559D (P10721 26-976 V559D): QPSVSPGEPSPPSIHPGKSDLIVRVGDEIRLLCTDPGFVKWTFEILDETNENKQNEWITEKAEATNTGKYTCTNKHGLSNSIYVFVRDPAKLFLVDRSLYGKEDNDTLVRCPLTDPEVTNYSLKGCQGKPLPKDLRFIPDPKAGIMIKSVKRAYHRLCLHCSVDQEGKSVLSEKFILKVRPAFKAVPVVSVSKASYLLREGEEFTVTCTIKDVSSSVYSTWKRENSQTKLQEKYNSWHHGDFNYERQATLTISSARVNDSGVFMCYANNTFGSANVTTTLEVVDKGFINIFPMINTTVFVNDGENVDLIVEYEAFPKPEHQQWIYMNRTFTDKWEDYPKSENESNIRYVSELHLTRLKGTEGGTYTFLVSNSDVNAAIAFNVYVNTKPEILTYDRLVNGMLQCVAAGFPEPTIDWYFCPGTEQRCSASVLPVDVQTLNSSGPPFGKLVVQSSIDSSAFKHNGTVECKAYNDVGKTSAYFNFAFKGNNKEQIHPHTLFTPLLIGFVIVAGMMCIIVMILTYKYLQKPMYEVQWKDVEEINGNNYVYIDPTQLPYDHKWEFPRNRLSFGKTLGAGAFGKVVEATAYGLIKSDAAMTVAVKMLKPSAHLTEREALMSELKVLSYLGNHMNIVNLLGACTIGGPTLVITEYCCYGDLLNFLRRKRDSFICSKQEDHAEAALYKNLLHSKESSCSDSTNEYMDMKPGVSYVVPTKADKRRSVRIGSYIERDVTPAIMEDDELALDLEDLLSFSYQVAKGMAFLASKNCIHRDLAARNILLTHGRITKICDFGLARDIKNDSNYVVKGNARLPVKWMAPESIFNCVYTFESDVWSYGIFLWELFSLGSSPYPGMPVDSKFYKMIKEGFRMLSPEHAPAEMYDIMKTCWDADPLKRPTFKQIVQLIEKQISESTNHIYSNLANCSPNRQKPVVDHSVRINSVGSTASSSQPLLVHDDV

LYN A = LYN A (Homo sapiens, UniProt P07948); assay: SelectScreen kinase profiling; type: biochemical; conditions: average of duplicate
Chain of LYN A (P07948 whole entry): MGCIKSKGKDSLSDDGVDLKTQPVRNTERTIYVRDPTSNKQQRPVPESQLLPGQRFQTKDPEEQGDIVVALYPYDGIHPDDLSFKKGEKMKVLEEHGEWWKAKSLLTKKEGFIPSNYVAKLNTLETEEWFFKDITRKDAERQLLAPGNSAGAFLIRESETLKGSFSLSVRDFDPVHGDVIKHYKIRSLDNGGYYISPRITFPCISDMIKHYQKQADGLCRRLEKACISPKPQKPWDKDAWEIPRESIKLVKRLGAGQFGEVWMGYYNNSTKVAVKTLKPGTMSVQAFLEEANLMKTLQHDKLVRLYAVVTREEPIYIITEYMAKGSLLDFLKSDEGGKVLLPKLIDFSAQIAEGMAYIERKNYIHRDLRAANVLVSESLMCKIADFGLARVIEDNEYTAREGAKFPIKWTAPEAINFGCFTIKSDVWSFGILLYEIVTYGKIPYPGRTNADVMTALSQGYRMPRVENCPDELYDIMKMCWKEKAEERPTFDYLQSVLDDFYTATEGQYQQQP

PTK6 (Brk) = PTK6 (Brk) (Homo sapiens, UniProt Q13882); assay: SelectScreen kinase profiling; type: biochemical; conditions: average of duplicate
ERN1 = ERN1 (Homo sapiens, UniProt O75460); assay: SelectScreen kinase profiling; type: biochemical; conditions: average of duplicate
FRK (PTK5) = FRK (PTK5) (Homo sapiens, UniProt P42685); assay: SelectScreen kinase profiling; type: biochemical; conditions: average of duplicate
KIT = KIT (Homo sapiens, UniProt P10721); assay: SelectScreen kinase profiling; type: biochemical; conditions: average of duplicate
Chain of KIT (P10721 26-976): as the sequence (P10721 26-976 V559D) above, with D534V counted along it

ITK = biological target: T1, ITK (Homo sapiens, UniProt Q08881); assay: AssayQuant kinact/Ki profiling, PhosphoSens CSox-based kinetic assay; conditions: for kinact: read-out: ITK kinact; for kinact/KI: read-out: ITK kinact/KI
T1 sequence (Q08881 1-620): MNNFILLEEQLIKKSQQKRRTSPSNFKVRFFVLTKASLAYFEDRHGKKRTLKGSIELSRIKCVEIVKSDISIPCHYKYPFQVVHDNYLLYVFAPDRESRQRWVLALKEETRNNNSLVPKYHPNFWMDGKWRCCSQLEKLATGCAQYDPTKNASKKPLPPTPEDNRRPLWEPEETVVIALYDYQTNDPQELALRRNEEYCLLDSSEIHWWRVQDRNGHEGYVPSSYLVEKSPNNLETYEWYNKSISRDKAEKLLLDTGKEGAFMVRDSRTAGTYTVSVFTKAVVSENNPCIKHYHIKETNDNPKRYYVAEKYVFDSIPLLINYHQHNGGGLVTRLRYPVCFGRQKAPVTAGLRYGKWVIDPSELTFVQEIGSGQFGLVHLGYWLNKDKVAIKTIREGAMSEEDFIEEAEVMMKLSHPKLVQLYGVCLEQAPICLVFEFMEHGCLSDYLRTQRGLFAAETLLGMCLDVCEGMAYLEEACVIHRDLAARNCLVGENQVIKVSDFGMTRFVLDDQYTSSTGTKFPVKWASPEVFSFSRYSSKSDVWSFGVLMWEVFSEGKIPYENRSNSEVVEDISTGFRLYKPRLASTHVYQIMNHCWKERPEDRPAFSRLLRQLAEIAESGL

PDGFRA (PDGFR alpha) = PDGFRA (PDGFR alpha) (Homo sapiens, UniProt P16234); assay: SelectScreen kinase profiling; type: biochemical; conditions: average of duplicate
Chain of PDGFRA (PDGFR alpha) (P16234 24-1089): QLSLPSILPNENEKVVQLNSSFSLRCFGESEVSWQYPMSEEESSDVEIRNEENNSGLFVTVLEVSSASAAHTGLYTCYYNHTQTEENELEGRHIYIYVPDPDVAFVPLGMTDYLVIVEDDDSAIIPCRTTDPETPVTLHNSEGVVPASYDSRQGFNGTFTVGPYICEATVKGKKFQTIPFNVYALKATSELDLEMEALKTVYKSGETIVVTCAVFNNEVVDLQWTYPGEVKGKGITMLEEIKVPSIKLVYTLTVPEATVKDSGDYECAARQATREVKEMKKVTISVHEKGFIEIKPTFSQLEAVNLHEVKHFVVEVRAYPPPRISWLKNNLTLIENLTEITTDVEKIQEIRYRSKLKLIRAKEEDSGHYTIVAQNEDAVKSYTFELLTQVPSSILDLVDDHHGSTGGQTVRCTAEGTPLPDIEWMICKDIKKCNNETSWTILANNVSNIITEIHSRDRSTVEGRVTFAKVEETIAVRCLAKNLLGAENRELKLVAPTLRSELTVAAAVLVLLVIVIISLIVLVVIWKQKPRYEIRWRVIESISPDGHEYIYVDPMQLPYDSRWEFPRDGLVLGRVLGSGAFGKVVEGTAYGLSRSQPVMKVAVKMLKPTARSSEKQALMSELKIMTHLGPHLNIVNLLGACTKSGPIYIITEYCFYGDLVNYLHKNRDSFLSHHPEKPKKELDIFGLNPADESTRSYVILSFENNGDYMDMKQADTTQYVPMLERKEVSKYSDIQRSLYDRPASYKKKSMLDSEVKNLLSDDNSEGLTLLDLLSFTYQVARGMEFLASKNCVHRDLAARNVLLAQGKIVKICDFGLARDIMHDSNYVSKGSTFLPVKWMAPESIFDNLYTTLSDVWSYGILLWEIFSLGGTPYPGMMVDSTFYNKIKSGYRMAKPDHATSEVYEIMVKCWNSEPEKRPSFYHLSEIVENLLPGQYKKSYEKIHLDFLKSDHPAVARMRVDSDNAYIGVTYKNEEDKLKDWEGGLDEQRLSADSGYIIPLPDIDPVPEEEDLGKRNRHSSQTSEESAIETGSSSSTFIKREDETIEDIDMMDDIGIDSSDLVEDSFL

TTK = TTK (Homo sapiens, UniProt P33981); assay: SelectScreen kinase profiling; type: biochemical; conditions: average of duplicate
BMX = biological target: T2, BMX (Homo sapiens, UniProt P51813); assay: AssayQuant kinact/Ki profiling, PhosphoSens CSox-based kinetic assay; type: biochemical; set-up: purchased ThermoFisher / Life Technologies SelectScreen PV3371; conditions: for kinact/KI / BMX kinact/Ki: 5.0 nM enzyme, 1000 µM ATP, two step fit; for kinact: fitted value, two step
T2 sequence (P51813 1-675): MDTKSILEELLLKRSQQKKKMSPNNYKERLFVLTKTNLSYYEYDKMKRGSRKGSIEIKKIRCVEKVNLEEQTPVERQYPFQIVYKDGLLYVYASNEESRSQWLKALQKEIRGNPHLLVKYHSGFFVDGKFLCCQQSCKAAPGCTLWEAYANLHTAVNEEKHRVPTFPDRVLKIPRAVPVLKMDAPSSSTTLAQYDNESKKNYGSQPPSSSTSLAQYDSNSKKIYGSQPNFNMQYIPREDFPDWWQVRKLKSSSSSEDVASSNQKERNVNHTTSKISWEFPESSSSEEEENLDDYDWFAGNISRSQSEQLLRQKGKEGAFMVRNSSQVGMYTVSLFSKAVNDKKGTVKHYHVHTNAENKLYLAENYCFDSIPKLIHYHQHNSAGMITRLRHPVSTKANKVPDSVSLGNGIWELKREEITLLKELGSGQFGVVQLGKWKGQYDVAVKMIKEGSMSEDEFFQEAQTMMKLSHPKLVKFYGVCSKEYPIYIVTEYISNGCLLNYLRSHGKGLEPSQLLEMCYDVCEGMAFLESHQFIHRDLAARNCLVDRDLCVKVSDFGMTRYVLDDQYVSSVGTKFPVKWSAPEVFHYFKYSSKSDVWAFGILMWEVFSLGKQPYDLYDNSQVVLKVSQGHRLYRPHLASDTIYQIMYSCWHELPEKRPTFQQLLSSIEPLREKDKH

PDGFRB (PDGFR beta) = PDGFRB (PDGFR beta) (Homo sapiens, UniProt P09619); assay: SelectScreen kinase profiling; type: biochemical; conditions: average of duplicate
EGFR (ErbB1) = EGFR (ErbB1) (Homo sapiens, UniProt P00533); assay: SelectScreen kinase profiling / Z′-Lyte kinase assay; conditions: for Hillslope: EGFR IC50 curve
Chain of EGFR (ErbB1) (P00533 668-1210 limits assumed): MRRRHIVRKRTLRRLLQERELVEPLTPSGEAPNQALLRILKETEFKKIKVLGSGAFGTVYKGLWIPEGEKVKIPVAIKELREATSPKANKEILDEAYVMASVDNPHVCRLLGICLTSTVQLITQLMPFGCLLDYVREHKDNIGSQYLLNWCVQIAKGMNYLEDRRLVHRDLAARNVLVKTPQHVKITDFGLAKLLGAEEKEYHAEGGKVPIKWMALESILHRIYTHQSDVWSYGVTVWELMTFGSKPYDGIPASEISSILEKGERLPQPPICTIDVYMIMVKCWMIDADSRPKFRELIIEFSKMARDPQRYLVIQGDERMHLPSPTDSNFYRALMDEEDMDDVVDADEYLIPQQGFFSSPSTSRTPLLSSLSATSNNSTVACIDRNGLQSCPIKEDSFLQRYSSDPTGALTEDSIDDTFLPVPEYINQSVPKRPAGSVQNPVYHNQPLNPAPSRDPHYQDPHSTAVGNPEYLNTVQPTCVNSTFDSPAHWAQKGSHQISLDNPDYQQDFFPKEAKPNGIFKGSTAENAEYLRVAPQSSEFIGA

Chain of MAP2K1 (MEK1) S218D S222D (Q02750 whole entry S218D/S222D): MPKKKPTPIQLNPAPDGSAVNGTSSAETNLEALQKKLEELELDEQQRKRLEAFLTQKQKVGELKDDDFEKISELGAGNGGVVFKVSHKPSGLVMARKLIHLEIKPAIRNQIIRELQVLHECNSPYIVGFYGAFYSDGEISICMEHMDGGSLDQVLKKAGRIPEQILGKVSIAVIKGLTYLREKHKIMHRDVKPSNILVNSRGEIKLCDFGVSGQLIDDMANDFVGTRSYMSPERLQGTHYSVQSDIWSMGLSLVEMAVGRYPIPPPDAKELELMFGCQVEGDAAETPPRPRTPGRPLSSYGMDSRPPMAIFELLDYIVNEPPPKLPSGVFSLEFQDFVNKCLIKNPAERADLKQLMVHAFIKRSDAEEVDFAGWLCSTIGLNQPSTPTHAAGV

With `C=CC(=O)N1CCCC(n2nc(-c3c(C)cc(Oc4ccccc4)cc3C)c3c(N)ncnc32)C1` (stereo in doubt) [Compound 3] the inhibition at 1 µM (TEC) was 91%, the inhibition at 1 µM [1] was 4% and the inhibition at 1 µM (ERBB2 (HER2)) was 2%. The kinact (HCK) was 0.0001 s⁻¹, the kinact/KI (HCK) was 5960 M⁻¹ s⁻¹ and the “pBTK/BTK ratio normalized to the DMSO control” value (from here on “pBTK/BTK ratio normalized”) (BTK; 1 uM) was 0.37. The “pBTK/BTK ratio normalized” value (BTK; 10 uM) was 0.31, the “pBTK/BTK ratio normalized” value (BTK; .01 uM) was 0.47 and the “pBTK/BTK ratio normalized” value (BTK; .1 uM) was 0.36. For the same molecule, the inhibition at 1 µM (KIT V559D) was 1%, the inhibition at 1 µM (LYN A) was 13% and the inhibition at 1 µM (PTK6 (Brk)) was 69%. The inhibition at 1 µM (ERN1) was 2%, the inhibition at 1 µM (FRK (PTK5)) was 9% and the inhibition at 1 µM (KIT) was 1%. It also gave a kinact (ITK) of 0.0005 s⁻¹, a kinact/KI (ITK) of 2800 M⁻¹ s⁻¹ and an inhibition at 1 µM (PDGFRA (PDGFR alpha)) of 3%. The inhibition at 1 µM (TTK) was -7%, the kinact/KI (BMX) was 65000 M⁻¹ s⁻¹ and the “BMX kinact/Ki” value (BMX; listed as Dimethyl Analog) was 64,800 M^-1S^-1. For the same molecule, the kinact (BMX) was 0.0053 s⁻¹, the inhibition at 1 µM (PDGFRB (PDGFR beta)) was 0% and the IC50 (EGFR (ErbB1)) was over 10000 nM. For the same molecule, the inhibition at 1 µM (EGFR (ErbB1)) was 0%, the “EGFR, BTK/Kinase” value (EGFR (ErbB1); BTK selectivity from IC50 values) was over 781 x and the Hillslope (EGFR (ErbB1)) was 0.96. For the same molecule, the “EGFR IC50” value (EGFR (ErbB1); Z′-Lyte, [ATP] Km app, 1 h incubation, duplicate) was “no observable activities”, the inhibition at 0.000495 µM (EGFR (ErbB1); read-out: % Inhibition Point 1) was -4% and the inhibition at 0.00152 µM (EGFR (ErbB1); read-out: % Inhibition Point 1) was -1%. The inhibition at 0.00457 µM (EGFR (ErbB1); read-out: % Inhibition Point 1) was -2%, the inhibition at 0.0137 µM (EGFR (ErbB1); read-out: % Inhibition Point 1) was -1% and the inhibition at 0.0412 µM (EGFR (ErbB1); read-out: % Inhibition Point 1) was -6%. For the same molecule, the inhibition at 0.123 µM (EGFR (ErbB1); read-out: % Inhibition Point 1) was 1%, the inhibition at 0.37 µM (EGFR (ErbB1); read-out: % Inhibition Point 1) was 5% and the inhibition at 1.11 µM (EGFR (ErbB1); read-out: % Inhibition Point 1) was 10%. It also gave an inhibition at 3.33 µM (EGFR (ErbB1); read-out: % Inhibition Point 1) of 20%, an inhibition at 10 µM (EGFR (ErbB1); read-out: % Inhibition Point 1) of 41% and an inhibition at 0.000495 µM (EGFR (ErbB1); read-out: % Inhibition Point 2) of 3%. It also gave an inhibition at 0.00152 µM (EGFR (ErbB1); read-out: % Inhibition Point 2) of -2%, an inhibition at 0.00457 µM (EGFR (ErbB1); read-out: % Inhibition Point 2) of 1% and an inhibition at 0.0137 µM (EGFR (ErbB1); read-out: % Inhibition Point 2) of 0%. The inhibition at 0.0412 µM (EGFR (ErbB1); read-out: % Inhibition Point 2) was -3%, the inhibition at 0.123 µM (EGFR (ErbB1); read-out: % Inhibition Point 2) was -2% and the inhibition at 0.37 µM (EGFR (ErbB1); read-out: % Inhibition Point 2) was 1%. It also gave an inhibition at 1.11 µM (EGFR (ErbB1); read-out: % Inhibition Point 2) of 5%, an inhibition at 3.33 µM (EGFR (ErbB1); read-out: % Inhibition Point 2) of 22% and an inhibition at 10 µM (EGFR (ErbB1); read-out: % Inhibition Point 2) of 45%.

Molecule `C=CC(=O)N1CCC[C@@H](n2nc(-c3ccc(Oc4ccccc4)cc3C)c3c(N)ncnc32)C1` [Compound 2, (R)-1-(3-(4-amino-3-(2-methyl-4-phenoxyphenyl)-1H-pyrazolo[3,4-d]pyrimidin-1-yl)piperidin-1-yl)prop-2-en-1-one] has an inhibition at 1 µM (TEC) of 100%, an inhibition at 1 µM [1] of 12% and an inhibition at 1 µM (ERBB2 (HER2)) of 71%. The kinact (HCK) was 0.0009 s⁻¹, the kinact/KI (HCK) was 1730 M⁻¹ s⁻¹ and the “pBTK/BTK ratio normalized” value (BTK; 1 uM) was 0.54. The “pBTK/BTK ratio normalized” value (BTK; 10 uM) was 0.21, the “pBTK/BTK ratio normalized” value (BTK; .01 uM) was 0.26 and the “pBTK/BTK ratio normalized” value (BTK; .1 uM) was 0.39. The inhibition at 1 µM (KIT V559D) was 14%, the inhibition at 1 µM (LYN A) was 85% and the inhibition at 1 µM (PTK6 (Brk)) was 97%. The inhibition at 1 µM (ERN1) was 2%, the inhibition at 1 µM (FRK (PTK5)) was 71% and the inhibition at 1 µM (KIT) was 15%. The kinact (ITK) was 0.0001 s⁻¹, the kinact/KI (ITK) was 4120 M⁻¹ s⁻¹ and the inhibition at 1 µM (PDGFRA (PDGFR alpha)) was 16%. For the same molecule, the inhibition at 1 µM (TTK) was 2%, the kinact/KI (BMX) was 81000 M⁻¹ s⁻¹ and the “BMX kinact/Ki” value (BMX; listed as Monomethyl Analog) was 80,800 M^-1S^-1. The kinact (BMX) was 0.0065 s⁻¹, the inhibition at 1 µM (PDGFRB (PDGFR beta)) was 6% and the IC50 (EGFR (ErbB1)) was 197 nM. The inhibition at 1 µM (EGFR (ErbB1)) was 89%, the Hillslope (EGFR (ErbB1)) was 1.08 and the inhibition at 0.000495 µM (EGFR (ErbB1); read-out: % Inhibition Point 1) was -6%. For the same molecule, the inhibition at 0.00152 µM (EGFR (ErbB1); read-out: % Inhibition Point 1) was -4%, the inhibition at 0.00457 µM (EGFR (ErbB1); read-out: % Inhibition Point 1) was -2% and the inhibition at 0.0137 µM (EGFR (ErbB1); read-out: % Inhibition Point 1) was 4%. The inhibition at 0.0412 µM (EGFR (ErbB1); read-out: % Inhibition Point 1) was 10%, the inhibition at 0.123 µM (EGFR (ErbB1); read-out: % Inhibition Point 1) was 38% and the inhibition at 0.37 µM (EGFR (ErbB1); read-out: % Inhibition Point 1) was 60%. For the same molecule, the inhibition at 1.11 µM (EGFR (ErbB1); read-out: % Inhibition Point 1) was 89%, the inhibition at 3.33 µM (EGFR (ErbB1); read-out: % Inhibition Point 1) was 92% and the inhibition at 10 µM (EGFR (ErbB1); read-out: % Inhibition Point 1) was 97%. The inhibition at 0.000495 µM (EGFR (ErbB1); read-out: % Inhibition Point 2) was -1%, the inhibition at 0.00152 µM (EGFR (ErbB1); read-out: % Inhibition Point 2) was -6% and the inhibition at 0.00457 µM (EGFR (ErbB1); read-out: % Inhibition Point 2) was -4%. The inhibition at 0.0137 µM (EGFR (ErbB1); read-out: % Inhibition Point 2) was 5%, the inhibition at 0.0412 µM (EGFR (ErbB1); read-out: % Inhibition Point 2) was 8% and the inhibition at 0.123 µM (EGFR (ErbB1); read-out: % Inhibition Point 2) was 35%. It also gave an inhibition at 0.37 µM (EGFR (ErbB1); read-out: % Inhibition Point 2) of 63%, an inhibition at 1.11 µM (EGFR (ErbB1); read-out: % Inhibition Point 2) of 82% and an inhibition at 3.33 µM (EGFR (ErbB1); read-out: % Inhibition Point 2) of 96%. For the same molecule, the inhibition at 10 µM (EGFR (ErbB1); read-out: % Inhibition Point 2) was 95%.
